Measured values reported in the supplement of paper PMC10307832.

Columns and labels:
Test in all cases: relative viability (nuclei count vs DMSO), 5 days (fraction); higher = more cells survive
Veliparib + Dasatinib = compound: C[C@]1(c2nc3c(C(N)=O)cccc3[nH]2)CCCN1 [Veliparib] + Cc1nc(Nc2ncc(C(=O)Nc3c(C)cccc3Cl)s2)cc(N2CCN(CCO)CC2)n1 [Dasatinib] (partner 0.075 µM)
Summary of the method: (§1)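 Cells from lung cancer lines were seeded into 1536-well plates and, one day later, dosed by pin tool. Treatments were either a single drug or a fixed dose of an anchor drug with five library-drug doses (not always all listed) in √10 steps. After 5 days, nuclei were stained in a one-step fixation (final 0.05% Triton X-100, 1% formaldehyde, 1 ug/ml Hoechst) and counted on 4× images, and relative viability is the treated-to-vehicle nuclei ratio, as the median of duplicate plates.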

[1] = compound: COC1=CC=C(C=C1)CN2C=CC3=C2C=C(C=C3)C(=O)NO + CC1(C)CCC(c2ccc(Cl)cc2)=C(CN2CCN(c3ccc(C(=O)NS(=O)(=O)c4ccc(N[C@H](CCN5CCOCC5)CSc5ccccc5)c(S(=O)(=O)C(F)(F)F)c4)cc3)CC2)C1 [Navitoclax] (partner 0.5 µM)
Summary of the method: as §1

Veliparib + Luminespib = compound: C[C@]1(c2nc3c(C(N)=O)cccc3[nH]2)CCCN1 [Veliparib] + CCNC(=O)c1noc(-c2cc(C(C)C)c(O)cc2O)c1-c1ccc(CN2CCOCC2)cc1 [Luminespib] (partner 0.01 µM)
Summary of the method: as §1

[2] = compound: COC1=CC=C(C=C1)CN2C=CC3=C2C=C(C=C3)C(=O)NO + CS(=O)(=O)CCNCc1ccc(-c2ccc3ncnc(Nc4ccc(OCc5cccc(F)c5)c(Cl)c4)c3c2)o1 [Lapatinib] (partner 2 µM)
Summary of the method: as §1

Cell Line	relative viability (Veliparib + Dasatinib; first compound 0.02 µM)	relative viability (Veliparib + Dasatinib; first compound 0.06325 µM)	relative viability (Veliparib + Dasatinib; first compound 0.2 µM)	relative viability (Veliparib + Dasatinib; first compound 0.6325 µM)	relative viability (Veliparib + Dasatinib; first compound 2 µM)	relative viability ([1]; first compound 0.253 µM)	relative viability ([1]; first compound 0.8 µM)	relative viability ([1]; first compound 2.53 µM)	relative viability ([1]; first compound 8 µM)	relative viability (Veliparib + Luminespib; first compound 0.02 µM)	relative viability (Veliparib + Luminespib; first compound 0.06325 µM)	relative viability (Veliparib + Luminespib; first compound 0.2 µM)	relative viability (Veliparib + Luminespib; first compound 0.6325 µM)	relative viability (Veliparib + Luminespib; first compound 2 µM)	relative viability ([2]; first compound 0.08 µM)	relative viability ([2]; first compound 0.253 µM)	relative viability ([2]; first compound 0.8 µM)	relative viability ([2]; first compound 2.53 µM)	relative viability ([2]; first compound 8 µM)	relative viability ([1]; first compound 0.08 µM)
ChaGo-K-1	0.336	0.615	0.566	0.624	0.584	0.932	1.13	0.911	0.887	0.44	0.655	0.648	0.525	0.596	–	–	–	–	–	–
NCI-H2342	0.293	0.297	0.299	0.321	0.288	–	–	–	–	0.687	0.729	0.594	0.972	0.666	–	–	–	–	–	–
NCI-H1703	–	–	–	–	–	1.09	1.27	1.01	1.08	–	–	–	–	–	0.691	1.16	1.1	1.07	0.873	1.49
NCI-H522	0.887	0.904	0.963	0.831	0.812	–	–	–	–	1.18	1.21	1.16	1.18	1.25	–	–	–	–	–	–
NCI-H1563	0.462	0.474	0.4	0.491	0.482	–	–	–	–	0.484	0.536	0.526	0.49	0.535	0.769	0.939	0.953	0.862	0.748	–
HCC-78	0.438	0.337	0.444	0.483	0.257	0.718	0.856	0.872	0.709	–	–	–	–	–	–	0.706	0.731	0.715	0.733	–
NCI-H358	0.0991	0.156	0.169	0.131	0.152	–	–	–	–	0.308	0.975	0.248	0.246	0.548	–	0.472	0.437	0.394	0.397	–
SW 900	–	–	0.538	0.644	0.696	–	–	–	–	–	–	0.204	0.19	0.118	–	–	–	–	–	–
IA-LM	–	–	–	–	–	0.882	1.02	0.851	0.695	–	–	–	–	–	0.551	0.662	0.952	0.966	0.541	0.675
NCI-H650	0.378	0.372	0.414	0.369	0.423	–	–	–	–	0.768	0.708	0.652	0.721	0.797	0.601	0.837	0.927	0.732	0.759	–
A549	–	–	–	–	–	1.26	1.25	1.15	1.07	–	–	–	–	–	–	0.931	1.09	0.953	0.915	1.22
HCC-44	–	–	–	–	–	0.976	0.872	0.883	0.989	1.09	–	1.12	0.917	0.985	0.777	0.924	0.944	0.921	0.963	0.891
